Reference: patent US20160120865A1, “TOPICAL TREATMENT OF LOCALIZED SCLERODERMA” (PRECISION DERMATOLOGY, INC., priority 2013, published 2016)

Tested on: TGFβ activated genes
Test: TGF-β osmotic pump mouse skin model, gene expression by nanostring
Format: in vivo, C57BL/6 mice
Design: key to Adam12 expression, TGFb/TGFbimatinib / spp1 expression, TGFb/TGFbimatinib / Thbs1 expression, TGFb/TGFbimatinib / Col1a1 expression, TGFb/TGFbimatinib / Sfrp2 expression, TGFb/TGFbimatinib / acta2 expression, TGFb/TGFbimatinib / Angpt2 expression, TGFb/TGFbimatinib / lox expression, TGFb/TGFbimatinib / Fmod expression, TGFb/TGFbimatinib / Wisp1 expression, TGFb/TGFbimatinib / serpine1 expression, TGFb/TGFbimatinib: TGFβ treatment works and the effect is blocked by imatinib in the local skin (+); DS+ skin (−)
Settings: for serpine1 expression, TGFb/TGFbimatinib / Adam12 expression, TGFb/TGFbimatinib / spp1 expression, TGFb/TGFbimatinib / Thbs1 expression, TGFb/TGFbimatinib / Col1a1 expression, TGFb/TGFbimatinib / Sfrp2 expression, TGFb/TGFbimatinib / acta2 expression, TGFb/TGFbimatinib / Angpt2 expression, TGFb/TGFbimatinib / lox expression, TGFb/TGFbimatinib / Fmod expression, TGFb/TGFbimatinib / Wisp1 expression, TGFb/TGFbimatinib: imatinib cream topical 2 times per day, 7 days; for serpine1 expression, TGFb/TGFbimatinib: FIG. 3; for Adam12 expression, TGFb/TGFbimatinib: FIG. 4; for spp1 expression, TGFb/TGFbimatinib: FIG. 5; for Thbs1 expression, TGFb/TGFbimatinib: FIG. 6; for Col1a1 expression, TGFb/TGFbimatinib: FIG. 7; for Sfrp2 expression, TGFb/TGFbimatinib: FIG. 8; for acta2 expression, TGFb/TGFbimatinib: FIG. 9; for Angpt2 expression, TGFb/TGFbimatinib: FIG. 10; for lox expression, TGFb/TGFbimatinib: FIG. 11; for Fmod expression, TGFb/TGFbimatinib: FIG. 12; for Wisp1 expression, TGFb/TGFbimatinib: FIG. 13
Protocol: C57BL/6 mice were obtained from The Jackson Laboratory (Bar Harbor, Me.). Osmotic pumps (Alzet, model 2001) designed to deliver 1 μL/h were loaded with TGF-β (1.25 μg) in phosphate buffered saline (PBS) supplemented with 0.1 mg/mL bovine serum albumin (BSA). Pumps were implanted subcutaneously in 8-week-old mice, who were subsequently treated with imatinib or placebo cream. After […], mice were sacrificed, and the skin (˜1 cm^2) surrounding the pump outlet was homogenized in TRIzol (Invitrogen) for preparation of RNA, or fixed in formalin. Skin from mice treated with PBS and TGF-β was analyzed using nanostring technology. A set of 50 genes including inflammatory genes, macrophages markers, TGF-β-regulated genes, and others were analyzed. 100 ng of RNA per sample was used and gene expression was normalized to the expression of 8 housekeeping-genes.
TGFb 2.5 μg/mL in 7 day Alzet pump.
imatinib cream topical application 7 days (2 times per day)
(3) −DS=Far from local skin

In the case of Cc1ccc(NC(=O)c2ccc(CN3CCN(C)CC3)cc2)cc1Nc1nccc(-c2cccnc2)n1 [imatinib], the “serpine1 expression, TGFb/TGFbimatinib” value (DS+ (near local skin)) is reported as “(−)”, the “Adam12 expression, TGFb/TGFbimatinib” value (DS+ (near local skin)) is reported as “(−)” and the “spp1 expression, TGFb/TGFbimatinib” value (DS+ (near local skin)) is reported as “(−)”. For the same compound, the “Thbs1 expression, TGFb/TGFbimatinib” value (DS+ (near local skin)) was “(−)”, the “Col1a1 expression, TGFb/TGFbimatinib” value (DS+ (near local skin)) was “(−)” and the “Sfrp2 expression, TGFb/TGFbimatinib” value (DS+ (near local skin)) was “(−)”. The “acta2 expression, TGFb/TGFbimatinib” value (DS+ (near local skin)) was “(−)”, the “Angpt2 expression, TGFb/TGFbimatinib” value (DS+ (near local skin)) was “(−)” and the “lox expression, TGFb/TGFbimatinib” value (DS+ (near local skin)) was “(−)”. For the same compound, the “Fmod expression, TGFb/TGFbimatinib” value (DS+ (near local skin)) was “(−)”, the “Wisp1 expression, TGFb/TGFbimatinib” value (DS+ (near local skin)) was “(−)” and the “serpine1 expression, TGFb/TGFbimatinib” value (LS (local skin)) was “(+)”. For the same compound, the “Adam12 expression, TGFb/TGFbimatinib” value (LS (local skin)) was “(+)”, the “spp1 expression, TGFb/TGFbimatinib” value (LS (local skin)) was “(+)” and the “Thbs1 expression, TGFb/TGFbimatinib” value (LS (local skin)) was “(+?)”. For the same compound, the “Col1a1 expression, TGFb/TGFbimatinib” value (LS (local skin)) was “(+)”, the “Sfrp2 expression, TGFb/TGFbimatinib” value (LS (local skin)) was “(+)” and the “acta2 expression, TGFb/TGFbimatinib” value (LS (local skin)) was “(+)”. For the same compound, the “Angpt2 expression, TGFb/TGFbimatinib” value (LS (local skin)) was “(+)”, the “lox expression, TGFb/TGFbimatinib” value (LS (local skin)) was “(+)” and the “Fmod expression, TGFb/TGFbimatinib” value (LS (local skin)) was “(+)”. The “Wisp1 expression, TGFb/TGFbimatinib” value (LS (local skin)) was “(+)”, the “effect of TGFβ treatment in skin” value (local skin (+) and DS+ skin (−), topical imatinib cream) was “blocked” and the “activation of TGFβ activated genes” value (mouse skin, topical imatinib cream) was “inhibits the activation of these genes”.
